Data from patent EP0188781A1, “1-Oxa-1-dethia-cephalosporin compounds and antibacterial agent comprising the same” (Merck & Co., Inc., priority 1984, dated 1986).

What was measured:
[1] = tested on: Staphylococcus aureus Smith; assay: Minimum inhibitory concentration (MIC) in vitro, antibacterial spectrum; format: cell-based
[2] = tested on: Staphylococcus aureus 209 P JC-1; assay: as above; format: cell-based
[3] = tested on: Escherichia coli NIHJ JC-2; assay: as above; format: cell-based
[4] = tested on: Escherichia coli GN206; assay: as above; format: cell-based
[5] = tested on: Salmonella typhimurium LT-2; assay: as above; format: cell-based
[6] = tested on: Proteus mirabilis GN79; assay: as above; format: cell-based
[7] = tested on: Proteus vulgaris GN76; assay: as above; format: cell-based
[8] = tested on: Proteus rettgeri GN624; assay: as above; format: cell-based
[9] = tested on: Serratia marcescens No. 2; assay: as above; format: cell-based
[10] = tested on: Pseudomonas aeruginosa MB3833; assay: as above; format: cell-based
[11] = tested on: Pseudomonas aeruginosa MB3829; assay: as above; format: cell-based
[12] = tested on: Pseudomonas aeruginosa E-2; assay: as above; format: cell-based
[13] = tested on: Streptococcus faecalis ATCC8043; assay: as above; format: cell-based
[14] = tested on: Streptococcus faecalis W-73; assay: as above; format: cell-based
[15] = tested on: Streptococcus faecalis W-74; assay: as above; format: cell-based
[16] = tested on: Streptococcus faecalis W-75; assay: as above; format: cell-based
[17] = tested on: Streptococcus faecalis; assay: Antibacterial activity in vitro, summary in words; format: cell-based; settings: statement in words on Table 1
[18] = tested on: Pseudomonas aeruginosa; assay: Antibacterial activity in vitro, summary in words; format: cell-based; settings: statement in words on Table 1
From the text: Besides, the compounds of Examples 1, 2, 4, 5 and 7 advantageously are also effective against Pseudomonas aeruginosa.

[19] = Concentration in serum after subcutaneous administration to mice, bioassay with Escherichia coli; format: in vivo; settings: mouse, sc, 25 mg/kg subcutaneously; for concentration at 0.5 h: 1/2 hour; for concentration at 0.25 h: 1/4 hour; for concentration at 5 min: 1/12 hour
From the text: For the serum which was separated from the blood samples, the concentration in the serum of the compound administered was bioassayed using Escherichia coli as assay microorganism.

| Structure (SMILES) | Minimum inhibitory concentration (MIC) [1] | Minimum inhibitory concentration (MIC) [2] | Minimum inhibitory concentration (MIC) [3] | Minimum inhibitory concentration (MIC) [4] | Minimum inhibitory concentration (MIC) [5] | Minimum inhibitory concentration (MIC) [6] | Minimum inhibitory concentration (MIC) [7] | Minimum inhibitory concentration (MIC) [8] | Minimum inhibitory concentration (MIC) [9] | Minimum inhibitory concentration (MIC) [10] | Minimum inhibitory concentration (MIC) [11] | Minimum inhibitory concentration (MIC) [12] | Minimum inhibitory concentration (MIC) [13] | Minimum inhibitory concentration (MIC) [14] | Minimum inhibitory concentration (MIC) [15] | Minimum inhibitory concentration (MIC) [16] | effective against Streptococcus faecalis [17] | effective against Pseudomonas aeruginosa [18] | concentration at 0.5 h [19] | concentration at 0.25 h [19] | also measured |
| --- | --- | --- | --- | --- | --- | --- | --- | --- | --- | --- | --- | --- | --- | --- | --- | --- | --- | --- | --- | --- | --- |
| CCN1CCN(C(=O)NC(C(=O)N[C@@H]2C(=O)N3C(C(=O)O)=C(CSc4nc(=O)c(O)nn4C)[C@H](C)O[C@H]23)c2csc(N)n2)C(=O)C1=O (single isomer, unassigned) [Compound No. 5] | 3.13 | 1.56 | 0.10 | 1.56 | 0.10 | 0.78 | 0.025 | 0.78 | 0.39 | 3.13 | 1.56 | 3.13 | 50 | 25 | 6.25 | 3.13 | effective | effective | 25000 ng/mL | 44000 ng/mL | concentration at 5 min [19]: 24000 ng/mL; concentration at 1 h [19]: 10000 ng/mL |
| CCN1CCN(C(=O)NC(C(=O)N[C@@H]2C(=O)N3C(C(=O)O)=C(CSc4nc(=O)c(O)nn4C)CO[C@H]23)c2csc(N)n2)C(=O)C1=O (single isomer, unassigned) [Compound No. 7] | 1.56 | 0.78 | 0.10 | 1.56 | 0.10 | 50 | 0.025 | 0.39 | 0.20 | 12.5 | 12.5 | 25 | 0.78 | 100 | 25 | 12.5 | – | effective | 32000 ng/mL | 34000 ng/mL | concentration at 5 min [19]: 25000 ng/mL; concentration at 1 h [19]: 13000 ng/mL |
| CO/N=C(\C(=O)N[C@@H]1C(=O)N2C(C(=O)O)=C(CSc3nc(=O)c(O)nn3C)[C@H](C)O[C@H]12)c1csc(N)n1 [Compound No. 1, (6R,7R)-7[(Z)-2-(2-aminothiazol-4-yl)-2-(methoxyimino)acetamido]-(2S)-2-methyl-3-(2,5-dihydro-6-hydroxy-2-methyl-5-oxo-1,2,4-triazin-3-yl)thiomethyl-l-oxa-l-dethia-ceph-3-em-4-carboxylic acid] | 1.56 | 0.78 | 0.10 | 0.78 | 0.05 | 0.025 | 0.10 | 0.78 | 0.39 | 6.25 | 6.25 | 12.5 | 6.25 | 50 | 6.25 | 0.20 | effective | effective | 41000 ng/mL | 47700 ng/mL | concentration at 5 min [19]: 27000 ng/mL; concentration at 1 h [19]: 24800 ng/mL |
| CCO/N=C(\C(=O)N[C@@H]1C(=O)N2C(C(=O)O)=C(CSc3nc(=O)c(O)nn3C)[C@H](C)O[C@H]12)c1csc(N)n1 [Compound No. 2, (6R,7R)-7-[(z)-2-(2-aminothiazol-4-yl)-2-(ethoxyimino)acetamido]-(2S)-2-methyl-3-(2,5-dihydro-6-hydroxy-2-methyl-5-oxo-1,2,4-triazin-3-yl)thiomethyl-l-oxa-l-dethia-ceph-3-em-4-carboxylic acid] | 1.56 | 1.56 | 0.39 | 0.78 | 0.39 | 0.20 | 0.20 | 0.78 | 0.39 | 12.5 | 6.25 | 25 | 1.56 | 50 | 6.25 | 0.20 | effective | effective | – | – | – |
| C[C@@H]1O[C@@H]2[C@H](NC(=O)C(NC=O)c3csc(N)n3)C(=O)N2C(C(=O)O)=C1CSc1nc(=O)c(O)nn1C (stereo partly drawn) [Compound No. 6, (6R,7R)-7-[2-(2-aminothiazol-4-yl)-2-(form-amido)acetamido]-(2S)-2-methyl-3-(2,5-dihydro-6-hydroxy-2-methyl-5-oxo-1,2,4-triazin-3-yl) thiomethyl-l-oxa-l-dethia-ceph-3-em-4-carboxylic acid] | 1.56 | 0.78 | 0.10 | 1.56 | 0.025 | 0.10 | 50 | 0.10 | 0.20 | 100 | 50 | 100 | 12.5 | 100 | 50 | 6.24 | effective | – | – | – | – |
